{"source": "patent US9149038B2", "about": "“4-amino-6-(heterocyclic)picolinates and 6-amino-2-(heterocyclic)pyrimidine-4-carboxylates and their use as herbicides” (Dow AgroSciences LLC, priority 2013, dated 2015)", "tested_on": "Direct Seeded Rice and weed species", "assay": "Postemergence herbicidal activity in direct seeded rice, visual rating after 20-22 days and probit GR20/GR50/GR80/GR90 (Table 14)", "format": "in vivo", "conditions": "for pest or weed control at 17.5 g/ha / pest or weed control at 35 g/ha / pest or weed control at 70 g/ha: post-emergence, 504 h, postemergence; for pest or weed control at 17.5 g/ha: 17.5 g ai/ha; for pest or weed control at 35 g/ha: 35 g ai/ha; for pest or weed control at 70 g/ha: 70 g ai/ha", "how_it_was_run": "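Visual injury scores (0 = none, 100 = complete kill) taken 20-22 days after treatment and fitted by probit analysis over several doses to give GR20/GR50/GR80/GR90. Plants at 2nd–3rd true leaf in pH about 8.1 loam–sand mix received track-sprayer applications of 187 L/ha containing 1.25% (v/v) crop oil concentrate.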", "key": {"[1]": {"conditions": "BRAPP (broadleaf signalgrass, Brachiaria platyphylla), read-out: Visual Growth Reduction (%) 21 Days After Application BRAPP"}, "[2]": {"conditions": "CYPDI (small-flower flatsedge, Cyperus difformis), read-out: Visual Growth Reduction (%) 21 Days After Application CYPDI"}, "[3]": {"conditions": "CYPES (yellow nutsedge, Cyperus esculentus), read-out: Visual Growth Reduction (%) 21 Days After Application CYPES"}, "[4]": {"conditions": "CYPIR (rice flatsedge, Cyperus iria), read-out: Visual Growth Reduction (%) 21 Days After Application CYPIR"}, "[5]": {"conditions": "DIGSA (large crabgrass, Digitaria sanguinalis), read-out: Visual Growth Reduction (%) 21 Days After Application DIGSA"}, "[6]": {"conditions": "ECHCG (barnyardgrass, Echinochloa crus-galli), read-out: Visual Growth Reduction (%) 21 Days After Application ECHCG"}, "[7]": {"conditions": "ECHCO (junglerice, Echinochloa colonum), read-out: Visual Growth Reduction (%) 21 Days After Application ECHCO"}, "[8]": {"conditions": "LEFCH (Chinese sprangletop, Leptochloa chinensis), read-out: Visual Growth Reduction (%) 21 Days After Application LEFCH"}, "[9]": {"conditions": "ORYSJ (Oryza sativa, rice crop), read-out: Visual Growth Reduction (%) 21 Days After Application ORYSJ"}, "[10]": {"conditions": "ORYSK (Oryza sativa, rice crop), read-out: Visual Growth Reduction (%) 21 Days After Application ORYSK"}, "[11]": {"conditions": "SCPJU (Japanese bulrush, Schoenoplectus juncoides Roxb.), read-out: Visual Growth Reduction (%) 21 Days After Application SCPJU"}, "[12]": {"conditions": "SEBEX (hemp sesbania, Sesbania exaltata), read-out: Visual Growth Reduction (%) 21 Days After Application SEBEX"}}, "note": "Where two headings read alike, the source gives them in different places."}
{"smiles": "Nc1cc(-c2cc3c(cc2F)OC(F)(F)O3)nc(C(=O)O)c1Cl", "note": "[Compound 42]", "values": [{"measurement": "GR50 BRAPP", "setting": "BRAPP (Brachiaria platyphylla), probit analysis, dose for 50 percent growth reduction", "result": 0.004, "unit": "g ai/ha"}, {"measurement": "GR80 BRAPP", "setting": "BRAPP (Brachiaria platyphylla), probit analysis, dose for 80 percent growth reduction", "result": 0.2, "unit": "g ai/ha"}, {"measurement": "GR90 BRAPP", "setting": "BRAPP (Brachiaria platyphylla), probit analysis, dose for 90 percent growth reduction", "result": 1, "unit": "g ai/ha"}, {"measurement": "GR50 CYPDI", "setting": "CYPDI (Cyperus difformis), probit analysis, dose for 50 percent growth reduction", "result": 0.004, "unit": "g ai/ha"}, {"measurement": "GR80 CYPDI", "setting": "CYPDI (Cyperus difformis), probit analysis, dose for 80 percent growth reduction", "result": 0.2, "unit": "g ai/ha"}, {"measurement": "GR90 CYPDI", "setting": "CYPDI (Cyperus difformis), probit analysis, dose for 90 percent growth reduction", "result": 1, "unit": "g ai/ha"}, {"measurement": "GR50 CYPES", "setting": "CYPES (Cyperus esculentus), probit analysis, dose for 50 percent growth reduction", "result": 0.4, "unit": "g ai/ha"}, {"measurement": "GR80 CYPES", "setting": "CYPES (Cyperus esculentus), probit analysis, dose for 80 percent growth reduction", "result": 2, "unit": "g ai/ha"}, {"measurement": "GR90 CYPES", "setting": "CYPES (Cyperus esculentus), probit analysis, dose for 90 percent growth reduction", "result": 5, "unit": "g ai/ha"}, {"measurement": "GR50 CYPIR", "setting": "CYPIR (Cyperus iria), probit analysis, dose for 50 percent growth reduction", "result": 3, "unit": "g ai/ha"}, {"measurement": "GR80 CYPIR", "setting": "CYPIR (Cyperus iria), probit analysis, dose for 80 percent growth reduction", "result": 5, "unit": "g ai/ha"}, {"measurement": "GR90 CYPIR", "setting": "CYPIR (Cyperus iria), probit analysis, dose for 90 percent growth reduction", "result": 6, "unit": "g ai/ha"}, {"measurement": "GR50 DIGSA", "setting": "DIGSA (Digitaria sanguinalis), probit analysis, dose for 50 percent growth reduction", "result": 0.004, "unit": "g ai/ha"}, {"measurement": "GR80 DIGSA", "setting": "DIGSA (Digitaria sanguinalis), probit analysis, dose for 80 percent growth reduction", "result": 0.158, "unit": "g ai/ha"}, {"measurement": "GR90 DIGSA", "setting": "DIGSA (Digitaria sanguinalis), probit analysis, dose for 90 percent growth reduction", "result": 1, "unit": "g ai/ha"}, {"measurement": "GR50 ECHCG", "setting": "ECHCG (Echinochloa crus-galli), probit analysis, dose for 50 percent growth reduction", "result": 0.0001, "unit": "g ai/ha"}, {"measurement": "GR80 ECHCG", "setting": "ECHCG (Echinochloa crus-galli), probit analysis, dose for 80 percent growth reduction", "result": 0.0001, "unit": "g ai/ha"}, {"measurement": "GR90 ECHCG", "setting": "ECHCG (Echinochloa crus-galli), probit analysis, dose for 90 percent growth reduction", "result": 0.0001, "unit": "g ai/ha"}, {"measurement": "GR50 ECHCO", "setting": "ECHCO (Echinochloa colonum), probit analysis, dose for 50 percent growth reduction", "result": 0.00015, "unit": "g ai/ha"}, {"measurement": "GR80 ECHCO", "setting": "ECHCO (Echinochloa colonum), probit analysis, dose for 80 percent growth reduction", "result": 0.0207, "unit": "g ai/ha"}, {"measurement": "GR90 ECHCO", "setting": "ECHCO (Echinochloa colonum), probit analysis, dose for 90 percent growth reduction", "result": 0.268, "unit": "g ai/ha"}, {"measurement": "GR50 LEFCH", "setting": "LEFCH (Leptochloa chinensis), probit analysis, dose for 50 percent growth reduction", "result": 4, "unit": "g ai/ha"}, {"measurement": "GR80 LEFCH", "setting": "LEFCH (Leptochloa chinensis), probit analysis, dose for 80 percent growth reduction", "result": 8, "unit": "g ai/ha"}, {"measurement": "GR90 LEFCH", "setting": "LEFCH (Leptochloa chinensis), probit analysis, dose for 90 percent growth reduction", "result": 13, "unit": "g ai/ha"}, {"measurement": "GR20 ORYSJ", "setting": "ORYSJ (Oryza sativa, rice crop), probit analysis, dose for 20 percent growth reduction", "result": 1, "unit": "g ai/ha"}, {"measurement": "GR20 ORYSK", "setting": "ORYSK (Oryza sativa, rice crop), probit analysis, dose for 20 percent growth reduction", "result": 1, "unit": "g ai/ha"}, {"measurement": "GR50 SCPJU", "setting": "SCPJU (Schoenoplectus juncoides Roxb.), probit analysis, dose for 50 percent growth reduction", "result": 0.0001, "unit": "g ai/ha"}, {"measurement": "GR80 SCPJU", "setting": "SCPJU (Schoenoplectus juncoides Roxb.), probit analysis, dose for 80 percent growth reduction", "result": 0.0001, "unit": "g ai/ha"}, {"measurement": "GR90 SCPJU", "setting": "SCPJU (Schoenoplectus juncoides Roxb.), probit analysis, dose for 90 percent growth reduction", "result": 0.0001, "unit": "g ai/ha"}, {"measurement": "GR50 SEBEX", "setting": "SEBEX (Sesbania exaltata), probit analysis, dose for 50 percent growth reduction", "result": 2, "unit": "g ai/ha"}, {"measurement": "GR80 SEBEX", "setting": "SEBEX (Sesbania exaltata), probit analysis, dose for 80 percent growth reduction", "result": 5, "unit": "g ai/ha"}, {"measurement": "GR90 SEBEX", "setting": "SEBEX (Sesbania exaltata), probit analysis, dose for 90 percent growth reduction", "result": 9, "unit": "g ai/ha"}, {"measurement": "pest or weed control at 17.5 g/ha", "setting": "[1]", "result": "95 to 100", "unit": "%"}, {"measurement": "pest or weed control at 35 g/ha", "setting": "[1]", "result": "95 to 100", "unit": "%"}, {"measurement": "pest or weed control at 70 g/ha", "setting": "[1]", "result": "95 to 100", "unit": "%"}, {"measurement": "pest or weed control at 17.5 g/ha", "setting": "[2]", "result": "95 to 100", "unit": "%"}, {"measurement": "pest or weed control at 35 g/ha", "setting": "[2]", "result": "95 to 100", "unit": "%"}, {"measurement": "pest or weed control at 70 g/ha", "setting": "[2]", "result": "95 to 100", "unit": "%"}, {"measurement": "pest or weed control at 17.5 g/ha", "setting": "[3]", "result": "95 to 100", "unit": "%"}, {"measurement": "pest or weed control at 35 g/ha", "setting": "[3]", "result": "95 to 100", "unit": "%"}, {"measurement": "pest or weed control at 70 g/ha", "setting": "[3]", "result": "95 to 100", "unit": "%"}, {"measurement": "pest or weed control at 17.5 g/ha", "setting": "[4]", "result": "95 to 100", "unit": "%"}, {"measurement": "pest or weed control at 35 g/ha", "setting": "[4]", "result": "95 to 100", "unit": "%"}, {"measurement": "pest or weed control at 70 g/ha", "setting": "[4]", "result": "95 to 100", "unit": "%"}, {"measurement": "pest or weed control at 17.5 g/ha", "setting": "[5]", "result": "95 to 100", "unit": "%"}, {"measurement": "pest or weed control at 35 g/ha", "setting": "[5]", "result": "95 to 100", "unit": "%"}, {"measurement": "pest or weed control at 70 g/ha", "setting": "[5]", "result": "95 to 100", "unit": "%"}, {"measurement": "pest or weed control at 17.5 g/ha", "setting": "[6]", "result": "95 to 100", "unit": "%"}, {"measurement": "pest or weed control at 35 g/ha", "setting": "[6]", "result": "95 to 100", "unit": "%"}, {"measurement": "pest or weed control at 70 g/ha", "setting": "[6]", "result": "95 to 100", "unit": "%"}, {"measurement": "pest or weed control at 17.5 g/ha", "setting": "[7]", "result": "95 to 100", "unit": "%"}, {"measurement": "pest or weed control at 35 g/ha", "setting": "[7]", "result": "95 to 100", "unit": "%"}, {"measurement": "pest or weed control at 70 g/ha", "setting": "[7]", "result": "95 to 100", "unit": "%"}, {"measurement": "pest or weed control at 17.5 g/ha", "setting": "[8]", "result": "95 to 100", "unit": "%"}, {"measurement": "pest or weed control at 35 g/ha", "setting": "[8]", "result": "95 to 100", "unit": "%"}, {"measurement": "pest or weed control at 70 g/ha", "setting": "[8]", "result": "95 to 100", "unit": "%"}, {"measurement": "pest or weed control at 17.5 g/ha", "setting": "[9]", "result": "85 to 94", "unit": "%"}, {"measurement": "pest or weed control at 35 g/ha", "setting": "[9]", "result": "95 to 100", "unit": "%"}, {"measurement": "pest or weed control at 70 g/ha", "setting": "[9]", "result": "95 to 100", "unit": "%"}, {"measurement": "pest or weed control at 17.5 g/ha", "setting": "[10]", "result": "60 to 74", "unit": "%"}, {"measurement": "pest or weed control at 35 g/ha", "setting": "[10]", "result": "75 to 84", "unit": "%"}, {"measurement": "pest or weed control at 70 g/ha", "setting": "[10]", "result": "75 to 84", "unit": "%"}, {"measurement": "pest or weed control at 17.5 g/ha", "setting": "[11]", "result": "95 to 100", "unit": "%"}, {"measurement": "pest or weed control at 35 g/ha", "setting": "[11]", "result": "95 to 100", "unit": "%"}, {"measurement": "pest or weed control at 70 g/ha", "setting": "[11]", "result": "95 to 100", "unit": "%"}, {"measurement": "pest or weed control at 17.5 g/ha", "setting": "[12]", "result": "95 to 100", "unit": "%"}, {"measurement": "pest or weed control at 35 g/ha", "setting": "[12]", "result": "95 to 100", "unit": "%"}, {"measurement": "pest or weed control at 70 g/ha", "setting": "[12]", "result": "95 to 100", "unit": "%"}]}
